Reference: PubChem BioAssay (NCI)
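Five compound concentrations were applied to cells in 96-well plates for 48 hours; endpoints were derived by simple linear interpolation of the resulting dose-response curve. GI50: concentration for 50% inhibition of growth. TGI is the concentration that stops growth completely.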

Key:
Assay in all cases: NCI-60 cell line screen, 48 h
LOX IMVI melanoma = system: LOX IMVI melanoma
SNB-75 CNS = system: SNB-75 CNS
A498 renal = system: A498 renal
SK-MEL-2 melanoma = system: SK-MEL-2 melanoma
BT-549 breast = system: BT-549 breast
SF-268 CNS = system: SF-268 CNS
HT29 colon = system: HT29 colon
KM12 colon = system: KM12 colon
SK-OV-3 ovarian = system: SK-OV-3 ovarian
NCI/ADR-RES ovarian = system: NCI/ADR-RES ovarian
TK-10 renal = system: TK-10 renal
U251 CNS = system: U251 CNS
SF-295 CNS = system: SF-295 CNS
A549 NSCLC = system: A549 NSCLC
CAKI-1 renal = system: CAKI-1 renal
SF-539 CNS = system: SF-539 CNS
HS 578T breast = system: HS 578T breast
HCC-2998 colon = system: HCC-2998 colon
DU-145 prostate = system: DU-145 prostate
IGROV1 ovarian = system: IGROV1 ovarian
NCI-H226 lung = system: NCI-H226 lung
SK-MEL-28 melanoma = system: SK-MEL-28 melanoma
PC-3 prostate = system: PC-3 prostate
MDA-MB-435 = system: MDA-MB-435
M14 melanoma = system: M14 melanoma
HCT-116 colon = system: HCT-116 colon
EKVX NSCLC = system: EKVX NSCLC
MCF7 breast = system: MCF7 breast
UACC-62 melanoma = system: UACC-62 melanoma
K-562 leukemia = system: K-562 leukemia
OVCAR-3 ovarian = system: OVCAR-3 ovarian
ACHN renal = system: ACHN renal
SN12C renal = system: SN12C renal
RXF 393 renal = system: RXF 393 renal
OVCAR-5 ovarian = system: OVCAR-5 ovarian
OVCAR-4 ovarian = system: OVCAR-4 ovarian
SNB-19 CNS = system: SNB-19 CNS
MOLT-4 leukemia = system: MOLT-4 leukemia
SR leukemia = system: SR leukemia
RPMI-8226 leukemia = system: RPMI-8226 leukemia
MDA-MB-231 breast = system: MDA-MB-231 breast
HL-60(TB) leukemia = system: HL-60(TB) leukemia
MALME-3M melanoma = system: MALME-3M melanoma
NCI-H460 lung = system: NCI-H460 lung
OVCAR-8 ovarian = system: OVCAR-8 ovarian
NCI-H522 lung = system: NCI-H522 lung
COLO 205 colon = system: COLO 205 colon
T-47D breast = system: T-47D breast
HOP-62 NSCLC = system: HOP-62 NSCLC
SW-620 colon = system: SW-620 colon
786-0 renal = system: 786-0 renal
HCT-15 colon = system: HCT-15 colon
UO-31 renal = system: UO-31 renal
SK-MEL-5 melanoma = system: SK-MEL-5 melanoma
CCRF-CEM leukemia = system: CCRF-CEM leukemia
UACC-257 melanoma = system: UACC-257 melanoma
HOP-92 NSCLC = system: HOP-92 NSCLC

`COc1ccc(CCOc2cc3c(cc2OC)CCN(C(=O)NCc2cocn2)C3c2ccc(C)cc2C)cc1` (centres undefined) gave a GI50 (LOX IMVI melanoma) of 388 nM, a TGI (LOX IMVI melanoma) of 4610 nM and a GI50 (SNB-75 CNS) of 761 nM. The TGI (SNB-75 CNS) was 5260 nM, the GI50 (A498 renal) was 1480 nM and the TGI (A498 renal) was 6430 nM. The GI50 (SK-MEL-2 melanoma) was 946 nM, the TGI (SK-MEL-2 melanoma) was 3890 nM and the GI50 (BT-549 breast) was 1010 nM. It also gave a TGI (BT-549 breast) of 3570 nM, a GI50 (SF-268 CNS) of 940 nM and a TGI (SF-268 CNS) of 8920 nM. It also gave a GI50 (HT29 colon) of 371 nM, a TGI (HT29 colon) of 2150 nM and a GI50 (KM12 colon) of 542 nM. The TGI (KM12 colon) was 8200 nM, the GI50 (SK-OV-3 ovarian) was 1260 nM and the TGI (SK-OV-3 ovarian) was 40700 nM. The GI50 (NCI/ADR-RES ovarian) was 610 nM, the TGI (NCI/ADR-RES ovarian) was over 34400 nM and the GI50 (TK-10 renal) was 2960 nM. The TGI (TK-10 renal) was 26700 nM, the GI50 (U251 CNS) was 605 nM and the TGI (U251 CNS) was 4530 nM. The GI50 (SF-295 CNS) was 897 nM, the TGI (SF-295 CNS) was 7030 nM and the GI50 (A549 NSCLC) was 1080 nM. The TGI (A549 NSCLC) was over 100000 nM, the GI50 (CAKI-1 renal) was 740 nM and the TGI (CAKI-1 renal) was 7240 nM. For the same compound, the GI50 (SF-539 CNS) was 346 nM, the TGI (SF-539 CNS) was 1630 nM and the GI50 (HS 578T breast) was 845 nM. It also gave a TGI (HS 578T breast) of 5150 nM, a GI50 (HCC-2998 colon) of 1320 nM and a TGI (HCC-2998 colon) of over 35000 nM. It also gave a GI50 (DU-145 prostate) of 790 nM, a TGI (DU-145 prostate) of 5890 nM and a GI50 (IGROV1 ovarian) of 905 nM. For the same compound, the TGI (IGROV1 ovarian) was over 100000 nM, the GI50 (NCI-H226 lung) was 1020 nM and the TGI (NCI-H226 lung) was 5160 nM. It also gave a GI50 (SK-MEL-28 melanoma) of 1010 nM, a TGI (SK-MEL-28 melanoma) of 7290 nM and a GI50 (PC-3 prostate) of 631 nM. For the same compound, the TGI (PC-3 prostate) was over 35100 nM, the GI50 (MDA-MB-435) was 296 nM and the TGI (MDA-MB-435) was 919 nM. The GI50 (M14 melanoma) was 765 nM, the TGI (M14 melanoma) was 5740 nM and the GI50 (HCT-116 colon) was 404 nM. It also gave a TGI (HCT-116 colon) of 21800 nM, a GI50 (EKVX NSCLC) of 3140 nM and a TGI (EKVX NSCLC) of over 100000 nM. It also gave a GI50 (MCF7 breast) of 452 nM, a TGI (MCF7 breast) of over 38700 nM and a GI50 (UACC-62 melanoma) of 495 nM. For the same compound, the TGI (UACC-62 melanoma) was 5930 nM, the GI50 (K-562 leukemia) was 355 nM and the TGI (K-562 leukemia) was over 55200 nM. The GI50 (OVCAR-3 ovarian) was 603 nM, the TGI (OVCAR-3 ovarian) was 10300 nM and the GI50 (ACHN renal) was 628 nM. The TGI (ACHN renal) was 8890 nM, the GI50 (SN12C renal) was 831 nM and the TGI (SN12C renal) was 4850 nM. It also gave a GI50 (RXF 393 renal) of 425 nM, a TGI (RXF 393 renal) of 2540 nM and a GI50 (OVCAR-5 ovarian) of 1350 nM. For the same compound, the TGI (OVCAR-5 ovarian) was over 100000 nM, the GI50 (OVCAR-4 ovarian) was 1510 nM and the TGI (OVCAR-4 ovarian) was over 100000 nM. The GI50 (SNB-19 CNS) was 1600 nM, the TGI (SNB-19 CNS) was 21900 nM and the GI50 (MOLT-4 leukemia) was 537 nM. It also gave a TGI (MOLT-4 leukemia) of over 24800 nM, a GI50 (SR leukemia) of 341 nM and a TGI (SR leukemia) of 2030 nM. For the same compound, the GI50 (RPMI-8226 leukemia) was 370 nM, the TGI (RPMI-8226 leukemia) was 1660 nM and the GI50 (MDA-MB-231 breast) was 834 nM. It also gave a TGI (MDA-MB-231 breast) of 6490 nM, a GI50 (HL-60(TB) leukemia) of 273 nM and a TGI (HL-60(TB) leukemia) of 833 nM. For the same compound, the GI50 (MALME-3M melanoma) was 1490 nM, the TGI (MALME-3M melanoma) was 11700 nM and the GI50 (NCI-H460 lung) was 374 nM. The TGI (NCI-H460 lung) was 3810 nM, the GI50 (OVCAR-8 ovarian) was 358 nM and the TGI (OVCAR-8 ovarian) was 10100 nM. The GI50 (NCI-H522 lung) was 243 nM, the TGI (NCI-H522 lung) was 634 nM and the GI50 (COLO 205 colon) was 835 nM. For the same compound, the TGI (COLO 205 colon) was 2760 nM, the GI50 (T-47D breast) was 1060 nM and the TGI (T-47D breast) was 9020 nM. For the same compound, the GI50 (HOP-62 NSCLC) was 1020 nM, the TGI (HOP-62 NSCLC) was 17100 nM and the GI50 (SW-620 colon) was 507 nM. It also gave a TGI (SW-620 colon) of over 100000 nM, a GI50 (786-0 renal) of 617 nM and a TGI (786-0 renal) of 8110 nM. The GI50 (HCT-15 colon) was 407 nM, the TGI (HCT-15 colon) was over 37500 nM and the GI50 (UO-31 renal) was 1180 nM. For the same compound, the TGI (UO-31 renal) was 14200 nM, the GI50 (SK-MEL-5 melanoma) was 509 nM and the TGI (SK-MEL-5 melanoma) was 1390 nM. The GI50 (CCRF-CEM leukemia) was 458 nM, the TGI (CCRF-CEM leukemia) was 9660 nM and the GI50 (UACC-257 melanoma) was 1390 nM. It also gave a TGI (UACC-257 melanoma) of 19800 nM, a GI50 (HOP-92 NSCLC) of 3470 nM and a TGI (HOP-92 NSCLC) of 18200 nM.
